Measured values reported in patent publication US20120040930A1, “TETRACYCLIC TERPENE SERIES COMPOUNDS, METHODS FOR PREPARING SAME, USES THEREOF AS MEDICINES AND PHARMACEUTICAL COMPOUNDS CONTAINING SAME” (priority 2005, published 2012).

What follows are compounds tested against T1, acetylcholinesterase (AChE) isolated from Electrophorus electricus (Electrophorus electricus, UniProt O42275) (assay: biochemical). Details: AChE IC50.
T1 construct: AChE isolated from Electrophorus electricus; from tissue
T1 sequence (O42275 24-633): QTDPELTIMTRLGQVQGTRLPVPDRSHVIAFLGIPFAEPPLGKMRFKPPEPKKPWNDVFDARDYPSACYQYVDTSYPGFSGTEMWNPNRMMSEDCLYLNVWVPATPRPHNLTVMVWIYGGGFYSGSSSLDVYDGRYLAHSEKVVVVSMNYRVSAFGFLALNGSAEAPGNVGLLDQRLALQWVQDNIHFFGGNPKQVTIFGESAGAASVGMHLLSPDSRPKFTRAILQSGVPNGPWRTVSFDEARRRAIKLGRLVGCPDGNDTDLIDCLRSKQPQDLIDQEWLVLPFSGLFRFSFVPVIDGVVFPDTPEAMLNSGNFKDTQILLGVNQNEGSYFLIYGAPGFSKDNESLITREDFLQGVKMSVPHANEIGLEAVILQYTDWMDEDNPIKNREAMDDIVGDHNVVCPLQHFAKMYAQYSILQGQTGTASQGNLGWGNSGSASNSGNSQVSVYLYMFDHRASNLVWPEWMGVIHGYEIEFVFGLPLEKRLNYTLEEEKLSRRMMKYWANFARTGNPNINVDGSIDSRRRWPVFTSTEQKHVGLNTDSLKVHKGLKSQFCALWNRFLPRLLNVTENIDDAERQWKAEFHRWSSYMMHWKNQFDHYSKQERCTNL
Work on `CC(=O)O[C@@H]1C[C@@]2(C)[C@@H]3CC[C@@H]4C(=CC[C@@H]5N=C(C(C)C)OC[C@]54C)C[C@H]3C(=O)C[C@]2(C)[C@H]1[C@H](C)N(C)C` [Compound 40] yielded an IC50 of 0.112 µM.
Compound `CC(C)C(=O)N[C@H]1CCC23C[C@]24C(=O)C[C@]2(C)[C@@H]([C@H](C)N(C)C)[C@H](O)C[C@@]2(C)[C@@H]4CC[C@H]3[C@]1(C)CN` (stereo partly drawn) [Compound 49, (20S)-20-dimethylamino-3β-(isobutyrylamino)-9,19-cyclo-4α-aminomethyl-4β,14α-dimethyl-5α,9β-pregnan-16α-ol-11-one] has an IC50 of 1.34 µM.
Compound `CC(C)C1=N[C@H]2CC=C3C[C@H]4C(=O)C[C@]5(C)[C@@H]([C@H](C)N(C)C)[C@H](OC(=O)C(C)(C)C)C[C@@]5(C)[C@@H]4CC[C@H]3[C@]2(C)CO1` [Compound 39, (20S)-10(9->1)abeo-20-dimethylamino-4β,14α-dimethyl-16α-pivalyl-(2′-isopropyl-3,29-dihydro-4H-[1,3]-oxazine)-5α,9β-pregn-1(10)-en-11-one] has an IC50 of 0.198 µM.

Same assay, conditions: AChE isolated from Electrophorus electricus; read-out: AChE IC50
In the case of `CC(=O)OC[C@]1(C)[C@@H](NC(=O)C(C)C)CCC23C[C@]24C(=O)C[C@]2(C)[C@@H]([C@H](C)N(C)C)[C@H](OC(C)=O)C[C@@]2(C)[C@@H]4CC[C@H]31` (stereo partly drawn) [Compound 42, (20S)-16α-acetyl-3β-isobutyrylamino-20-dimethylamino-9,19-cyclo-4β,14α-dimethyl-4α-acetylmethyl-5α,9β-pregnan-11-one], the IC50 is reported as > 100 µM.
For `C[C@@H]([C@H]1[C@H](O)C[C@@]2(C)[C@@H]3CC[C@@H]4C5(CC[C@H](NC(=O)Cc6ccccc6)[C@@]4(C)CO)C[C@@]35C(=O)C[C@]12C)N(C)C` (stereo partly drawn) [Compound 6g, (20S)-9,19-cyclo-4α-hydroxymethyl-4,14α-dimethyl-20-dimethylamino-3 (phenylacetylamino)-5α,9-pregnan-16α-ol-11-one], the IC50 was > 5 µM.
`CC(C)C(=O)N[C@H]1CCC23C[C@@]24[C@@H](CC[C@H]3[C@]1(C)CO)[C@]1(C)C[C@@H](O)[C@H]([C@H](C)N(C)C)[C@@]1(C)C[C@@H]4O` (stereo partly drawn) [Compound 34, (20S)-20-dimethylamino-3β-(isobutyrylamino)-9,19-cyclo-4α-hydroxymethyl-4β,14α-dimethyl-5α,9β-pregnan-11β,16α-diol-11-one] was tested, and the IC50 was > 100 µM.
`CC[C@H](C)C(=O)N[C@H]1CCC23C[C@]24C(=O)C[C@]2(C)[C@@H]([C@H](C)N(C)C)[C@H](O)C[C@@]2(C)[C@@H]4CC[C@H]3[C@]1(C)CN` (stereo partly drawn) [Compound 63, (20S)-20-dimethylamino-3β-((S)-2-methylbutyrylamino)-9,19-cyclo-4α-aminomethyl-4β,14α-dimethyl-5α,9β-pregnan-16α-ol-11-one] was tested, and the IC50 was 0.637 µM.
Work on `CC(C)C1=NC2CCC34C[C@]35C(=O)C[C@]3(C)[C@@H]([C@H](C)N(C)C)[C@H](OC(=O)C(C)(C)C)C[C@@]3(C)[C@@H]5CC[C@H]4[C@]2(C)CN1` (stereo partly drawn) [Compound 52, (20S)-20-dimethylamino-9,19-cyclo-4β,14α-dimethyl-16α-pivalyl-(2′-isopropyl-1′/3′,3,29-tetrahydropyrimidine)-5α,9β-pregnan-11-one] yielded an IC50 of 0.029 µM.
With `CC[C@H](C)C(=O)N[C@H]1CCC23C[C@@]24[C@@H](CC[C@H]3[C@]1(C)CO)[C@]1(C)C[C@@H](O)[C@H]([C@H](C)N(C)C)[C@@]1(C)C[C@@H]4O` (stereo partly drawn) [Compound 35, (20S)-20-dimethylamino-3β-((S)-2-methylbutyrylamino)-9,19-cyclo-4α-hydroxymethyl-4β,14α-dimethyl-5α,9β-pregnan-11β,16α-diol-11-one] the IC50 was > 100 µM.
In the case of `CN[C@@H](C)[C@H]1[C@H](O)C[C@@]2(C)[C@@H]3CC[C@@H]4C(=CCC5N=C(C(C)C)OC[C@]54C)C[C@H]3C(=O)C[C@]12C` (stereo partly drawn) [Compound 33, (20S)-10(9->1)abeo-20-methylamino-4β,14α-dimethyl-(2′-isopropyl-3,29-dihydro-4H-[1,3]-oxazine)-5α,9β-pregn-1(10)-en-16α-ol-11-one], the IC50 is reported as 0.106 µM.
With `CC[C@H](C)C(=O)N[C@H]1CC=C2C[C@H]3C(=O)C[C@]4(C)[C@@H]([C@H](C)N(C)C)[C@H](O)C[C@@]4(C)[C@@H]3CC[C@H]2[C@]1(C)C=O` [Compound 67, (20S)-10(9->1)-abeo-20-dimethylamino-3-((S)-2-methylbutyrylamino)-4α-formyl-4β,14α-dimethyl-5α,9β-pregn-1(10)-en-16α-ol-11-one] the IC50 was > 100 µM.
In the case of `CC[C@H](C)C(=O)N[C@H]1CC=C2C[C@H]3C(=O)C[C@]4(C)[C@@H]([C@H](C)N(C)C)[C@H](OC(C)=O)C[C@@]4(C)[C@@H]3CC[C@H]2[C@]1(C)C=O` [Compound 66], the IC50 is reported as > 100 µM.
`CC(C)C1=N[C@H]2CCC34C[C@]35C(=O)C[C@]3(C)[C@@H]([C@H](C)N(C)C)[C@H](OC(=O)C(C)(C)C)C[C@@]3(C)[C@@H]5CC[C@H]4[C@]2(C)CO1` (stereo partly drawn) [Compound 38, (20S)-20-dimethylamino-9,19-cyclo-4β,14α-dimethyl-16α-pivalyl-(2′-isopropyl-3,29-dihydro-4H-[1,3]-oxazine)-5α,9β-pregn-11-one] gave an IC50 of 0.181 µM.
`CC1=N[C@H]2CC=C3C[C@H]4C(=O)C[C@]5(C)[C@@H]([C@H](C)N(C)C)[C@H](O)C[C@@]5(C)[C@@H]4CC[C@H]3[C@]2(C)CO1` [Compound 8a, (20S)-10(9->1)abeo-4,14α-dimethyl-20-dimethylamino(2′-methyl-4′,4′-dihydro[3′,1′]oxazin)-5α,9-pregn-1(10)-en-16α-ol-11-one] was tested, and the IC50 was 0.676 µM.
In the case of `CC(C)C(=O)N[C@H]1CCC23C[C@]24C(=O)C[C@]2(C)[C@@H]([C@H](C)N(C)C)[C@H](O)C[C@@]2(C)[C@@H]4CC[C@H]3[C@]1(C)C=O` (stereo partly drawn) [Compound 44, (20S)-3β-isobutyrylamino-20-dimethylamino-9,19-cyclo-4β,14α-dimethyl-4α-formyl-5α,9β-pregnan-16α-ol-11-one], the IC50 is reported as > 100 µM.
With `CC(C)C(=O)N[C@H]1CCC23C[C@]24C(=O)C[C@]2(C)[C@@H]([C@H](C)N(C)C)[C@H](O)C[C@@]2(C)[C@@H]4CC[C@H]3[C@]1(C)/C=N/Cc1ccccc1` (stereo partly drawn) [Compound 45, (20S)-20-dimethylamino-3β-(isobutyrylamino)-9,19-cyclo-4α-benzyliminomethyl-4β,14α-dimethyl-5α,9β-pregnan-16α-ol-11-one] the IC50 was > 100 µM.
“(20S)-3β-isobutyrylamino-20-methylamino-9,19-cyclo-4α-benzylaminomethyl-4β,14α-dimethyl-16α-pivalyl-5α,9β-pregnan-11-one [Compound 48]” showed an IC50 of 17.5 µM.
For `CC(C)C(=O)N[C@H]1CCC23C[C@]24C(=O)C[C@]2(C)[C@@H]([C@H](C)N(C)C)[C@H](O)C[C@@]2(C)[C@@H]4CC[C@H]3[C@]1(C)CNCc1ccccc1` (stereo partly drawn) [Compound 46, (20S)-20-dimethylamino-3β-(isobutyrylamino)-9,19-cyclo-4α-benzylaminomethyl-4β,14α-dimethyl-5α,9β-pregnan-16α-ol-11-one], the IC50 was 33.9 µM.
With `CC[C@H](C)C(=O)N[C@H]1CCC23C[C@]24C(=O)C[C@]2(C)[C@@H]([C@H](C)N(C)C)[C@H](O)C[C@@]2(C)[C@@H]4CC[C@H]3[C@]1(C)/C=N/Cc1ccccc1` (stereo partly drawn) [Compound 61, (20S)-20-dimethylamino-3β-((S)-2-methylbutyrylamino)-9,19-cyclo-4α-benzyliminomethyl-4β,14α-dimethyl-5α,9β-pregnan-16α-ol-11-one] the IC50 was > 100 µM.
`CCC(C)C1=NC2CCC34C[C@]35C(=O)C[C@]3(C)[C@@H]([C@H](C)N(C)C)[C@H](O)C[C@@]3(C)[C@@H]5CC[C@H]4[C@]2(C)CN1` (stereo partly drawn) [Compound 64, (20S)-20-dimethylamino-9,19-cyclo-4β,14α-dimethyl-(2-(S)-sec-butyl-5β-methyl-1,4,5,6-tetrahydro-pyrimidin-5-yl)-5α,9β-pregnan-16α-ol-11-one] gave an IC50 of 0.014 µM.
Compound `CC(C)[C@H]1N[C@H]2CC=C3C[C@H]4C(=O)C[C@]5(C)[C@@H]([C@H](C)N(C)C)[C@H](O)C[C@@]5(C)[C@@H]4CC[C@H]3[C@]2(C)CO1` [Compound 12, (20S)-10(9->1)abeo-4,14α-dimethyl-20-dimethylamino(2′β-isopropyl-1′,2′,4′,4′-tetrahydro[3′,1′]oxazin)-5α,9-pregn-1(10)-en-16α-ol-11-one] has an IC50 of 0.823 µM.

Same assay, conditions: read-out: AChE IC50
With `CC[C@H](C)C(=O)N[C@H]1CC=C2C[C@H]3C(=O)C[C@]4(C)[C@@H]([C@H](C)N(C)C)[C@H](O)C[C@@]4(C)[C@@H]3CC[C@H]2[C@]1(C)/C=N/Cc1ccccc1` [Compound 68, (20S)-10(9->1)-abeo-20-dimethylamino-3-((S)-2-methylbutyrylamino)-4α-benzyliminomethyl-4β,14α-dimethyl-5α,9β-pregn-1(10)-en-16α-ol-11-one] the IC50 was 0.78 µM.
`CC[C@H](C)C1=N[C@H]2CC=C3C[C@H]4C(=O)C[C@]5(C)[C@@H]([C@H](C)N(C)C)[C@H](O)C[C@@]5(C)[C@@H]4CC[C@H]3[C@]2(C)CN1` [Compound 71, (20S)-10(9->1)-abeo-20-dimethylamino-4β,14α-dimethyl-(2-(S)-sec-butyl-5β-methyl-1,4,5,6-tetrahydro-pyrimidin-5-yl)-5α,9β-pregnan-1(10)-en-16α-ol-11-one] gave an IC50 of 0.028 µM.
`C[C@@H]([C@H]1[C@H](O)C[C@@]2(C)[C@@H]3CC[C@@H]4C(=CC[C@@H]5N=C(c6ccccc6)OC[C@]54C)C[C@H]3C(=O)C[C@]12C)N(C)C` [Compound 8b, (20S)-10(9->1)abeo-4,14α-dimethyl-20-dimethylamino(2′-phenyl-4′,4′-dihydro[3′,1′]oxazin)-5α,9-pregn-1(10)-en-16α-ol-11-one] was tested, and the IC50 was 7.65 µM.
Compound `CC[C@H](C)C(=O)N[C@H]1CC=C2C[C@H]3C(=O)C[C@]4(C)[C@@H]([C@H](C)N(C)C)[C@H](O)C[C@@]4(C)[C@@H]3CC[C@H]2[C@]1(C)CN` [Compound 70, (20S)-10(9->1)-abeo-20-dimethylamino-3-((S)-2-methylbutyrylamino)-4α-aminomethyl-4β,14α-dimethyl-5α,9β-pregn-1(10)-en-16α-ol-11-one] has an IC50 of 0.368 µM.
